Molecules are shown by their SMILES.

The melting point is the temperature of the solid-liquid transition. `O=C(O)CN(CC(=O)O)CC(=O)O` returned a melting point of 245 °C.

In turn, `O=C1COCC(=O)O1` returned a melting point of 90 to 95 °C.

`c1cncc(C2CCCCN2)c1` (stereo not drawn): the melting point was determined as 9 °C.

In the case of `Cc1nn(C(=O)OC(C)(C)C)c(C)c1C=O`, the melting point was 59 to 62 °C.

`COC(=O)C=Cc1ccc(C=CC(=O)OC)c([N+](=O)[O-])c1` returned a melting point of 166 °C.

With `O=[N+]([O-])c1cc([N+](=O)[O-])c(C=C(Cl)c2ccccc2)cc1C=C(Cl)c1ccccc1`, the melting point is 145 °C.

Regarding `O=C(O)C(Cl)Cl`, the melting point turned out to be 13.5 °C.

On to `O=Cc1cccc(-c2ccc(C(=O)O)cc2)c1`, for which the melting point was in the range of 231 to 233 °C.

Compound `C=CCCCCCCCCCCCCCCCCCCCC` registered a melting point of 38 °C.

`Nc1cccc(Cl)c1C(=O)O` displayed a melting point of 159 °C.

Take `Fc1c(F)c(F)c(Br)c(F)c1F`: the melting point was -31 °C.

The compound `Cc1sc(C2CCN(C(=O)OC(C)(C)C)CC2)nc1CC(=O)O` came in with a melting point of 48 to 50 °C.

The compound `FC(F)(F)c1ccc2nsnc2c1` gave a melting point of 36 to 37 °C.

Compound `CCOC(=O)C=Cc1ccccc1N` gave a melting point of 76 to 77 °C.

In the case of `O=C(O)C(O)c1ccc(F)cc1F` (stereo not drawn), the melting point stood at 123 °C.

For `COc1cc(OC)c(Cl)cc1N`, the melting point was 89 to 92 °C.

On to `COc1ccc(OC)c(/C=N/n2c(S)nnc2C(F)(F)F)c1`, for which the melting point was found to be 145 °C.

Compound `CC1(C)CC(C(N)=O)C(C)(C)N1` (stereo not drawn) yielded a melting point of 129 to 131 °C.

`CCOc1ccc(CC#N)cc1`: the melting point was in the range of 44 to 47 °C.

On to `C=Cc1ccc(OCc2ccccc2)c(OC)c1`, for which the melting point fell in the range of 48 to 55 °C.

`CCCC(=O)OC(=O)CCC` had a melting point of -73 °C.

For the compound `O=C(NC(=O)c1ccccc1)c1ccccc1`, the melting point is 152 °C.

Regarding `COc1ccc([N+](=O)[O-])c(Cl)n1`, the melting point is 78 to 80 °C.

As for `Nc1c(Cl)cc(F)cc1Cl`, the melting point came to 56 °C.

On to `CN1CCN(C(=O)OC2c3nccnc3C(=O)N2c2ccc(Cl)cn2)CC1` (stereo not drawn), for which the melting point is 178 °C.

The compound `COP(=S)(OC)Oc1c(Cl)cc(C)cc1Cl` yielded a melting point of 79 °C.

`CC12CCC(C(C(c3ccccc3)c3ccccc3)C1=O)C2(C)C` (stereo not drawn) came in with a melting point of 137 °C.

`C[C@]12CC[C@H]3[C@@H](CC=C4C[C@@H](O)CC[C@@]43C)[C@@H]1CC[C@@H]2O` showed a melting point of 178 to 182 °C.

For `CCOC(=O)Cn1cc(Cl)c(=O)c(Cl)c1`, the melting point lay in the range of 209 to 211 °C.

With `CC(C)(C)[Si](C)(C)N1C(=O)C[C@@H]1C(=O)O`, the melting point was 137 to 141 °C.

With `CCCCCOC(=O)Nc1nc(=O)n(C2OC(C)C(O)C2O)cc1F` (stereo not drawn), the melting point was 116 °C.

`O=C(O)Cc1cccc(Br)c1` had a melting point of 101 °C.

In turn, `CC(Br)C(Br)c1nc(O)n(-c2ccccc2)n1` (stereo not drawn) showed a melting point of 128 °C.

For `Nc1cc2[nH]c(=O)c(C(=O)c3ccccc3)cc2cc1C=O`, the melting point fell in the range of 278 to 279 °C.

Compound `O=C(Cc1cc(Cl)c([N+](=O)[O-])cc1[N+](=O)[O-])c1ccccc1` displayed a melting point of 133 °C.

`Nc1ccc(I)cc1C(=O)O` returned a melting point of 219 to 221 °C.

Consider `CC(=O)c1ccc(C)cc1O`, for which the melting point stood at 21 °C.

`COc1cc(Br)c(CC(=O)O)cc1OC` returned a melting point of 94 to 96 °C.

Compound `Cc1ccc(S(=O)c2ccc(C)cc2)cc1` had a melting point of 95 °C.

`O=[N+]([O-])c1ccc(C(O)CNCc2ccccc2)cc1` (stereo not drawn) yielded a melting point of 133 to 134 °C.

The compound `Cc1cc(Br)cnc1F` gave a melting point of 62 °C.

Compound `O=C(O)C1(c2ccc(Cl)cc2Cl)CC1` registered a melting point of 140 to 147 °C.

`O=[N+]([O-])c1ccccc1C(Cl)C(Cl)c1ccccn1` (stereo not drawn) showed a melting point of 144 °C.
